Converted amounts (≈) assume the structure as drawn. Read-outs that look alike come from different tables or passages of the source.
Assays:
Assay type in all cases: cell-based
[1] = tested on: human colon cancer cell line HCT-116; experiment: In vitro antitumor/anticancer testing (CCK-8), HCT-116; conditions: 48 h
Protocol: (§1) Each of Tea Product 1 and Conventional Tea Product obtained in section A of this example was used to prepare test tea samples according to the method described below. A proper amount of the respective tea product was added into sterile water to prepare a stock solution with a concentration of 100 mg/mL, followed by using a membrane filter with a pore size of 0.22 μm to conduct vacuum filtration and sterilization. The resulting stock solution was diluted with a respective complete medium shown in Table 3 below to form test tea samples with different concentrations. In other words, the thus obtained test tea samples to be used for treating a respective cancer/tumor cell line shown in Table 3 were prepared using the same complete medium as that for the respective cancer/tumor cell line. […] Specifically, each of the aforesaid commercially available agents was subjected to the method described below to prepare comparative test samples. A proper amount of a respective commercially available agent was dissolved in phosphate-buffered saline (PBS) to prepare a stock solution with a concentration of 5 mg/mL, followed by using a membrane filter with a pore size of 0.22 μm to conduct vacuum filtration and sterilization. The resulting stock solution was diluted with a respective complete medium shown in Table 3 below to form comparative test samples with different concentrations. To be specific, the comparative test samples prepared from the respective commercially available agent have the concentrations shown in Table 2 below. The thus obtained comparative test samples to be used for treating a respective cancer/tumor cell line shown in Table 3 were prepared using the same complete medium as that for the respective cancer/tumor cell line. […] The cultivation of each cancer/tumor cell line is described as follows. […] Afterwards, a cell suspension having a cell density of 1.0×10^4 cells/mL was prepared. […] As experimental groups, the tumor/cancer cells of each cell line were treated with the test tea samples prepared from one or more of the tea products and the comparative test samples prepared from one or more of the commercially available agents as obtained in section B of this example (for more detailed information about the tea product(s) and the commercially available product (s) used to treat each cell line, please see Table 4 below). To be specific, 6 to 10 test tea samples prepared from the same tea product and having different concentrations, as well as 6 to 10 comparative test samples prepared from the same commercially available agent and having different concentrations, were utilized to treat the tumor/cancer cells of each cell line. For each experimental group, 6 repetitions of tumor/cancer treatment were performed. For the control group, 100 μL of PBS was added to a well containing the medium and the cancer/tumor cells of the respective cell line. For the blank group, 100 μL of PBS was added to a well containing a complete medium the same as that used for cultivation of the cancer/tumor cells of the respective cell line. After the treatment described above, cultivation was conducted in an incubator (37° C., 100% relative humidity, 5% CO2) for 48 hours. Subsequently, the liquid containing the medium and the sample in the well was removed, and a respective complete medium (shown in Table 3 above) containing 10% CCK-8 (Cell Counting Kit-8)(Dojindo Molecular Technologies, Inc., Cat. No. CK04-13) was added. Cultivation was performed in an incubator (37° C.) for 2 to 4 hours, followed by gently shaking.

[2] = tested on: human squamous cell carcinoma cell line A431; experiment: In vitro antitumor/anticancer testing (CCK-8), A431; conditions: 48 h; for IC50: A431
Protocol: as §1

[3] = tested on: human gastric cancer cell line SMMC-7721; experiment: In vitro antitumor/anticancer testing (CCK-8), SMMC-7721; conditions: 48 h
Protocol: as §1

[4] = tested on: human gastric cancer cell line BGC-823; experiment: In vitro antitumor/anticancer testing (CCK-8), BGC-823; conditions: 48 h
Protocol: as §1

Q: How did the inhibition at 0.3125 µg/mL ([1]; Homo sapiens, HCT-116, 0.3125 μg/mL, read-out: Percent growth inhibition) turn out when O=c1[nH]cc(F)c(=O)[nH]1 [5-fluorouracil] was run?
A: 70.1%

Q: And the inhibition at 0.625 µg/mL ([1]; Homo sapiens, HCT-116, 0.625 μg/mL, read-out: Percent growth inhibition)?
A: 32.4%

Q: What about the inhibition at 1.25 µg/mL ([1]; Homo sapiens, HCT-116, 1.25 μg/mL, read-out: Percent growth inhibition) of the same compound?
A: 36.4%

Q: And the inhibition at 2.5 µg/mL ([1]; Homo sapiens, HCT-116, 2.5 μg/mL, read-out: Percent growth inhibition)?
A: 88.5%

Q: What about the inhibition at 5 µg/mL ([1]; Homo sapiens, HCT-116, 5 μg/mL, read-out: Percent growth inhibition) of the same compound?
A: 89.9%

Q: What about the inhibition at 10 µg/mL ([1]; Homo sapiens, HCT-116, 10 μg/mL, read-out: Percent growth inhibition) of the same compound?
A: 91.9%

Q: What about the inhibition at 20 µg/mL ([1]; Homo sapiens, HCT-116, 20 μg/mL, read-out: Percent growth inhibition) of the same compound?
A: 95.8%

Q: What about the inhibition at 40 µg/mL ([1]; Homo sapiens, HCT-116, 40 μg/mL, read-out: Percent growth inhibition) of the same compound?
A: 97.9%

Q: What about the inhibition at 80 µg/mL ([1]; Homo sapiens, HCT-116, 80 μg/mL, read-out: Percent growth inhibition) of the same compound?
A: 99.5%

Q: And the IC50 ([1]; Homo sapiens, HCT-116, read-out: IC50)?
A: 0.0493 µg/mL (≈ 0.379 µM)

Q: And the inhibition at 0.3125 µg/mL ([2]; Homo sapiens, A-431, 0.3125 μg/mL, read-out: Percent growth inhibition)?
A: 82.4%

Q: What about the inhibition at 0.625 µg/mL ([2]; Homo sapiens, A-431, 0.625 μg/mL, read-out: Percent growth inhibition) of the same compound?
A: 83.5%

Q: And the inhibition at 1.25 µg/mL ([2]; Homo sapiens, A-431, 1.25 μg/mL, read-out: Percent growth inhibition)?
A: 83.1%

Q: And the inhibition at 2.5 µg/mL ([2]; Homo sapiens, A-431, 2.5 μg/mL, read-out: Percent growth inhibition)?
A: 83%

Q: And the inhibition at 5 µg/mL ([2]; Homo sapiens, A-431, 5 μg/mL, read-out: Percent growth inhibition)?
A: 84.4%

Q: What about the inhibition at 10 µg/mL ([2]; Homo sapiens, A-431, 10 μg/mL, read-out: Percent growth inhibition) of the same compound?
A: 33.7%

Q: What about the inhibition at 20 µg/mL ([2]; Homo sapiens, A-431, 20 μg/mL, read-out: Percent growth inhibition) of the same compound?
A: 96.3%

Q: And the inhibition at 40 µg/mL ([2]; Homo sapiens, A-431, 40 μg/mL, read-out: Percent growth inhibition)?
A: 98.2%

Q: And the inhibition at 80 µg/mL ([2]; Homo sapiens, A-431, 80 μg/mL, read-out: Percent growth inhibition)?
A: 98.8%

Q: What about the IC50 ([2]; Homo sapiens, A-431, read-out: IC50) of the same compound?
A: 0.272 µg/mL (≈ 2.09 µM)

Q: And the inhibition at 0.3125 µg/mL ([3]; Homo sapiens, SMMC-7721, 0.3125 μg/mL, read-out: Percent growth inhibition)?
A: 28.6%

Q: And the inhibition at 0.625 µg/mL ([3]; Homo sapiens, SMMC-7721, 0.625 μg/mL, read-out: Percent growth inhibition)?
A: 62.4%

Q: And the inhibition at 1.25 µg/mL ([3]; Homo sapiens, SMMC-7721, 1.25 μg/mL, read-out: Percent growth inhibition)?
A: 81%

Q: What about the inhibition at 2.5 µg/mL ([3]; Homo sapiens, SMMC-7721, 2.5 μg/mL, read-out: Percent growth inhibition) of the same compound?
A: 82.7%

Q: And the inhibition at 5 µg/mL ([3]; Homo sapiens, SMMC-7721, 5 μg/mL, read-out: Percent growth inhibition)?
A: 84.3%

Q: And the inhibition at 10 µg/mL ([3]; Homo sapiens, SMMC-7721, 10 μg/mL, read-out: Percent growth inhibition)?
A: 81.6%

Q: What about the inhibition at 20 µg/mL ([3]; Homo sapiens, SMMC-7721, 20 μg/mL, read-out: Percent growth inhibition) of the same compound?
A: 79.1%

Q: And the inhibition at 40 µg/mL ([3]; Homo sapiens, SMMC-7721, 40 μg/mL, read-out: Percent growth inhibition)?
A: 80.2%

Q: And the inhibition at 80 µg/mL ([3]; Homo sapiens, SMMC-7721, 80 μg/mL, read-out: Percent growth inhibition)?
A: 91%

Q: What about the IC50 ([3]; Homo sapiens, SMMC-7721) of the same compound?
A: 0.383 µg/mL (≈ 2.94 µM)

Q: And the inhibition at 0.3125 µg/mL ([4]; Homo sapiens, BGC-823, 0.3125 μg/mL, read-out: Percent growth inhibition)?
A: -5.82%

Q: What about the inhibition at 0.625 µg/mL ([4]; Homo sapiens, BGC-823, 0.625 μg/mL, read-out: Percent growth inhibition) of the same compound?
A: -4.99%

Q: And the inhibition at 1.25 µg/mL ([4]; Homo sapiens, BGC-823, 1.25 μg/mL, read-out: Percent growth inhibition)?
A: -1.41%

Q: What about the inhibition at 2.5 µg/mL ([4]; Homo sapiens, BGC-823, 2.5 μg/mL, read-out: Percent growth inhibition) of the same compound?
A: 0.92%

Q: What about the inhibition at 5 µg/mL ([4]; Homo sapiens, BGC-823, 5 μg/mL, read-out: Percent growth inhibition) of the same compound?
A: 11.6%

Q: And the inhibition at 10 µg/mL ([4]; Homo sapiens, BGC-823, 10 μg/mL, read-out: Percent growth inhibition)?
A: 23.9%

Q: And the inhibition at 20 µg/mL ([4]; Homo sapiens, BGC-823, 20 μg/mL, read-out: Percent growth inhibition)?
A: 40.9%

Q: What about the inhibition at 40 µg/mL ([4]; Homo sapiens, BGC-823, 40 μg/mL, read-out: Percent growth inhibition) of the same compound?
A: 52.7%

Q: And the inhibition at 80 µg/mL ([4]; Homo sapiens, BGC-823, 80 μg/mL, read-out: Percent growth inhibition)?
A: 62.8%

Q: What about the IC50 ([4]; Homo sapiens, BGC-823, read-out: IC50) of the same compound?
A: 2.55 µg/mL (≈ 19.6 µM)

Q: Which results are given for O=C(O[C@@H]1Cc2c(O)cc(O)cc2O[C@@H]1c1cc(O)c(O)c(O)c1)c1cc(O)c(O)c(O)c1 [EGCG monomer, epigallocatechin gallate]?
A: Percent growth inhibition ([1]; 2.5 μg/mL): 10.74%; Percent growth inhibition ([1]; 5 μg/mL): −7.91%; Percent growth inhibition ([1]; 10 μg/mL): −4.12%; Percent growth inhibition ([1]; 20 μg/mL): −1.58%; Percent growth inhibition ([1]; 40 μg/mL): 34.52%; Percent growth inhibition ([1]; 80 μg/mL): 66.98%; IC50 ([1]; HCT-116): IC50 (μg/mL) = 55.72; Percent growth inhibition ([2]; 0.3125 μg/mL): 7.79%; Percent growth inhibition ([2]; 0.625 μg/mL): 13.31%; Percent growth inhibition ([2]; 1.25 μg/mL): 10.00%; Percent growth inhibition ([2]; 2.5 μg/mL): 12.70%; Percent growth inhibition ([2]; 5 μg/mL): 19.18%; Percent growth inhibition ([2]; 10 μg/mL): 24.03%; Percent growth inhibition ([2]; 20 μg/mL): 34.07%; Percent growth inhibition ([2]; 40 μg/mL): 55.14%; Percent growth inhibition ([2]; 80 μg/mL): 30.13%; IC50 [2]: IC50 (μg/mL) = 29.51; Percent growth inhibition ([3]; 2.5 μg/mL): 4.93%; Percent growth inhibition ([3]; 5 μg/mL): 3.31%; Percent growth inhibition ([3]; 10 μg/mL): 3.45%; Percent growth inhibition ([3]; 20 μg/mL): 1.33%; Percent growth inhibition ([3]; 40 μg/mL): 6.33%; Percent growth inhibition ([3]; 80 μg/mL): 40.85%; Percent growth inhibition ([3]; 160 μg/mL): 92.58%; Percent growth inhibition ([3]; 320 μg/mL): 98.50%; Percent growth inhibition ([3]; 640 μg/mL): 97.44%; Percent growth inhibition ([4]; 2.5 μg/mL): −0.82%; Percent growth inhibition ([4]; 5 μg/mL): −1.06%; Percent growth inhibition ([4]; 10 μg/mL): −0.64%; Percent growth inhibition ([4]; 20 μg/mL): 6.47%; Percent growth inhibition ([4]; 40 μg/mL): 28.02%; Percent growth inhibition ([4]; 80 μg/mL): 60.53%; Percent growth inhibition ([4]; 160 μg/mL): 97.87%; Percent growth inhibition ([4]; 320 μg/mL): 98.16%; Percent growth inhibition ([4]; 640 μg/mL): 97.03%; IC50 ([4]; BGC-823): IC50 (μg/mL) = 62.94

From patent US20180071354A1, “SELECTIVE BREEDING METHOD OF ANTITUMOR/ANTICANCER CAMELLIA SINENSIS STRAIN, AND TEA PRODUCT OF SUCH STRAIN” (FUJIAN AGRICULTURE AND FORESTRY UNIVERSITY, priority 2015, published 2018)
